What was measured:
[1] = Rancimate assay, antioxidative capacity (Example 1); conditions: 0.1% w/w in soya oil; 120° C.; input of air 201/h
Procedure: The antioxidative capacity of substances I-9, I-10 and I-2 is determined in the so-called Rancimate assay. The comparative substances used are 4-t-butyl-1-cyclohexanol and tocopherol. The positive standard employed is BHT. The measurement parameter is the time duration (induction time) of the increase in the conductivity of unstabilised soya oil on exposure to air at elevated temperature. The longer the induction time, the greater the stabilising or antioxidant action. The following boundary conditions were maintained: input of air 201/h; temperature 120° C. and sample concentrations of 0.1% w/w each in soya oil. For each test substance, a relative antioxidation-protection factor is determined, which corresponds to the ratio of the induction times with and without test substance: […]

[2] = test system: S. epidermidis (ATCC 12228); assay: Growth inhibition by optical density, Bioscreen C (Example 3); assay type: cell-based, Staphylococcus epidermidis; conditions: 1.0% sample in water/ethanol (12% of ethanol) diluted 1 to 2 with bacteria suspension, 37° C.
Procedure: For sample preparation, the substances being investigated are each dissolved or homogeneously dispersed in an amount of 1.0% in a water/ethanol mixture (12% of ethanol) and subsequently diluted with bacteria suspension in the ratio 1 to 2. S. epidermidis (ATCC 12228) is pre-incubated under aerobic conditions for 24 h at 35° C. on CASO agar (Merck 1.05458). A bacteria suspension having an optical density (OD) of about 1.0 is subsequently prepared in CASO broth (Merck 1.05459, double-concentrated) and diluted again 1:10 in CASO broth. 150 μl of freshly prepared sample are added to 150 μl of bacteria suspension per well. The optical density is determined over the course of time at 37° C. using a Bioscreen C™ analyser compared with the negative control (=vehicle without test substance). Compared with the negative control, reduced optical densities confirm growth-inhibiting substance actions
(§1) Result as optical density of the bacteria suspension after an exposure time of 20 hours: […]

P. acnes (ATCC 6919) = assay: Growth inhibition by optical density, Bioscreen C (Example 4); assay type: cell-based, Propionibacterium acnes; conditions: 1.0% sample in water/ethanol (12% of ethanol) diluted 1 to 2 with bacteria suspension; 37° C.; negative control 1.0
Procedure: (§2) For sample preparation, the substances being investigated are each dissolved or homogeneously dispersed in an amount of 1.0% in a water/ethanol mixture (12% of ethanol) and subsequently diluted with bacteria suspension in the ratio 1 to 2. P. acnes (ATCC 6919) is pre-incubated under anaerobic conditions for 48 h at 35° C. on RMC agar (Merck 1.05410). A bacteria suspension having an optical density (OD) of about 1.5 is subsequently prepared in RMC broth (Merck 1.05411, double-concentrated). 150 μl of freshly prepared sample and 100 μl of paraffin are added to 150 μl of bacteria suspension per well. The optical density is determined over the course of time at 37° C. using a Bioscreen C™ analyser compared with the negative control (=vehicle without test substance). Compared with the negative control, reduced optical densities confirm growth-inhibiting substance actions.
as §1

[3] = test system: S. epidermidis (ATCC 12228); assay: Microbe count determination, bacteriostatic or bactericidal action (Example 5); assay type: cell-based, Staphylococcus epidermidis; conditions: 24 h at 35° C.; for Final microbe count: 1.0% sample in 12% ethanol, 500 μl + 500 μl bacteria suspension, initial count 3.8 × 10^4, negative control 5.0 × 10^7; for Note: bacteriostatic or bactericidal action: S. epidermidis
Procedure: (§3) For sample preparation, the substances being investigated are each dissolved or homogeneously dispersed in an amount of 1.0% in a water/ethanol mixture (12% of ethanol) (=sample). A bacteria suspension of S. epidermidis (ATCC 12228) having an optical density of 1.0 in CASO broth (Merck 1.05459) is diluted 1:10000 with CASO broth. 500 μl of sample are added to 500 μl of bacteria suspension, and the mixture is incubated at 35° C. for 24 h. After the incubation, the test batches are diluted to −6 in 10 unit steps, and 0.1 ml of each is plated-out on CASO agar (Merck 1.05458) and incubated at 35° C. for 24 h.
(§4) In order to determine the initial microbe count, 0.1 ml of the bacteria suspension used are plated-out on CASO agar (Merck 1.05458) and incubated at 35° C. for 24 h.
(§5) The colonies are subsequently counted, and the microbe count per ml is determined compared with the negative control (12% of ethanol in water).

Candida albicans = assay: Antimicrobial action, microbe count (Example 6); assay type: cell-based; conditions: for Δlog: t24 h
Procedure: as §3, §4, §5
(§6) The procedure corresponds to that described in Examples 4 and 5 using the microorganisms shown below. The concentrations indicated are the final use concentrations. In order to prepare the stock solution, double the final concentration were prepared in the solvent indicated. This was subsequently diluted 1:2 with the corresponding microbe suspension. In the case of Aspergillus brasiliensis, the microbe count determination was exceptionally carried out after 48 h.

Aspergillus brasiliensis = assay: Antimicrobial action, microbe count (Example 6); assay type: cell-based; conditions: H2O (12% of ethanol); for Δlog: count after 48 h; for Microbe count t24 h: count carried out after 48 h
Procedure: as §2, §3, §4, §5, §6

Corynebacterium xerosis = assay: Antimicrobial action, microbe count (Example 6); assay type: cell-based; conditions: for Δlog: t24 h
Procedure: as §2, §3, §4, §5, §6

Echerichia coli = assay: Antimicrobial action, microbe count (Example 6); assay type: cell-based; conditions: H2O (12% of ethanol); for Δlog: t24 h
Procedure: as §2, §3, §4, §5, §6

Propionibacterium acnes = assay: Antimicrobial action, microbe count (Example 6); assay type: cell-based; conditions: for Δlog: t24 h
Procedure: as §2, §3, §4, §5, §6

Pseudomonas aeruginosa = assay: Antimicrobial action, microbe count (Example 6); assay type: cell-based; conditions: conc. 0.5%, H2O (12% of ethanol), count t0 6.8 × 10^4
Procedure: as §2, §3, §4, §5, §6

Salmonella enterica = assay: Antimicrobial action, microbe count (Example 6); assay type: cell-based; conditions: H2O (12% of ethanol); for Δlog: t24 h
Procedure: as §2, §3, §4, §5, §6

Serratia marcescens = assay: Antimicrobial action, microbe count (Example 6); assay type: cell-based; conditions: conc. 0.5%, H2O (12% of ethanol), count t0 6.8 × 10^4
Procedure: as §2, §3, §4, §5, §6

Staphylococcus aureus = assay: Antimicrobial action, microbe count (Example 6); assay type: cell-based; conditions: conc. 0.5%, H2O (12% of ethanol); for Δlog: t24 h
Procedure: as §2, §3, §4, §5, §6

[4] = test system: Staphylococcus epidermidis; assay: Antimicrobial action, microbe count (Example 6); assay type: cell-based; conditions: conc. 0.5%, H2O (12% of ethanol), count t0 3.4 × 10^4
Procedure: as §2, §3, §4, §5, §6

[5] = Densities and viscosities, Ubbelohde viscometer, to estimate spreadability (Example 10); assay type: physicochemical; conditions: 25° C.
Procedure: Measurement of the Dynamic Viscosities in Order to Estimate the Spreadability at 25° C. After measurement of the densities and kinematic viscosities using an Ubbelohde viscometer, the following dynamic viscosities arise: Since spreadabilities and viscosities of cosmetic emollients correlate well, good spreadabilities can be concluded from the viscosities determined.

Malassezia furfur = assay: Antimicrobial action, microbe count (Example 6); assay type: cell-based; conditions: conc. 1.0%, H2O, count t0 4.0 × 10^2
Procedure: as §2, §3, §4, §5, §6

[6] = 2nd experiment, negative control 0.65
[7] = conc. 0.5%, H2O (12% of ethanol), count t0 3.4 × 10^4
[8] = conc. 0.5%, H2O, count t0 3.8 × 10^5
[9] = conc. 0.5%, count t0 2.0 × 10^4
[10] = conc. 0.125%, H2O, count t0 1.0 × 10^6
[11] = conc. 0.5%, H2O (12% of ethanol), count t0 3.5 × 10^4
[12] = conc. 0.5%, count t0 4.6 × 10^4
[13] = conc. 0.5%, H2O (12% of ethanol), count t0 2.0 × 10^4
[14] = conc. 0.5%, count t0 6.0 × 10^4
[15] = conc. 0.2%, count t0 6.3 × 10^4
[16] = conc. 1.0%, H2O (12% of ethanol), count t0 6.0 × 10^3
[17] = conc. 1.0%, count t0 8.0 × 10^2
[18] = conc. 0.5%, H2O, count t0 1.0 × 10^6
[19] = conc. 0.8%, count t0 6.3 × 10^4
[20] = conc. 1.0%, H2O, count t0 7.8 × 10^5
[21] = conc. 0.8%, count t0 1.3 × 10^4

Compound: CC1CC(OC(=O)C2CCCCC2O)CC(C)(C)C1 (stereo not drawn) [Substance I-10, 2-hydroxycyclohexanecarboxylic acid 3,3,5-trimethylcyclohexyl ester]
- Antioxidation-protection factor (ratio of the induction times with and without test substance) [1]: 1.14
- OD20h, optical density of the bacteria suspension after 20 hours ([2]; 1st experiment, negative control 0.80): 0.30
- OD20h, optical density of the bacteria suspension after 20 hours (P. acnes (ATCC 6919)): 0.45
- Final microbe count [3]: 2.0 × 10^3 CFU/ml
- Note: bacteriostatic or bactericidal action [3]: bacteriostatic

Compound: CCCCC(CC)COC(=O)C1CCCCC1O (stereo not drawn) [Substance I-9, 2-hydroxycyclohexanecarboxylic acid 2-ethylhexyl ester]
- Antioxidation-protection factor (ratio of the induction times with and without test substance) [1]: 1.12
- OD20h, optical density of the bacteria suspension after 20 hours [2, 6]: 0.30
- OD20h, optical density of the bacteria suspension after 20 hours (P. acnes (ATCC 6919)): 0.50
- Final microbe count [3]: 2.0 × 10^3 CFU/ml
- Note: bacteriostatic or bactericidal action [3]: bacteriostatic
- Microbe count t24 h (Candida albicans; [7]): 1.5 × 10^1
- Δlog (Candida albicans; [7]): −3.36
- Microbe count t24 h (Candida albicans; [8]): 8.0 × 10^6
- Δlog (Candida albicans; [8]): +1.32
- Δlog (Aspergillus brasiliensis; [9]): −1.40
- Microbe count t24 h (Aspergillus brasiliensis; [9]): 8.0 × 10^2
- Microbe count t24 h (Corynebacterium xerosis; [10]): 5.0 × 10^6
- Δlog (Corynebacterium xerosis; [10]): +0.70
- Microbe count t24 h (Corynebacterium xerosis; [11]): 0
- Δlog (Corynebacterium xerosis; [11]): −4.54
- Microbe count t24 h (Echerichia coli; [12]): 3.8 × 10^2
- Δlog (Echerichia coli; [12]): −2.08
- Microbe count t24 h (Propionibacterium acnes; [13]): 8.0 × 10^2
- Δlog (Propionibacterium acnes; [13]): −1.40
- Microbe count t24 h (Pseudomonas aeruginosa): 9.0 × 10^3
- Δlog (Pseudomonas aeruginosa; t24 h): −0.88
- Microbe count t24 h (Salmonella enterica; [14]): 1.8 × 10^4
- Δlog (Salmonella enterica; [14]): −0.52
- Microbe count t24 h (Serratia marcescens): 9.0 × 10^3
- Δlog (Serratia marcescens; t24 h): −0.88
- Microbe count t24 h (Staphylococcus aureus; count t0 4.2 × 10^4): 1.4 × 10^2
- Δlog (Staphylococcus aureus; count t0 4.2 × 10^4): −2.48
- Microbe count t24 h [4]: 6.0 × 10^3
- Δlog ([4]; t24 h): −0.75
- Density [5]: 0.9752 g/mL
- Dynamic viscosity (kinematic viscosity × density) [5]: 32.2 mPas
- Kinematic viscosity ([5]; Ubbelohde viscometer): 33.0 mm^2/s

Compound: COC(=O)c1ccc(O)cc1 [Methylparaben, methylparaben, reference compound]
- Microbe count t24 h (Echerichia coli; [15]): 4.8 × 10^3
- Δlog (Echerichia coli; [15]): −1.12

Compound: CCCCOC(=O)C1CCC(O)CC1 (stereo not drawn) [Substance I-20, 4-hydroxycyclohexanecarboxylic acid butyl ester]
- OD20h, optical density of the bacteria suspension after 20 hours [2, 6]: 0.20
- OD20h, optical density of the bacteria suspension after 20 hours (P. acnes (ATCC 6919)): 0.70
- Final microbe count [3]: 0 CFU/ml
- Note: bacteriostatic or bactericidal action [3]: bactericidal
- Microbe count t24 h (Candida albicans; [8]): 0
- Δlog (Candida albicans; [8]): −5.58
- Microbe count t24 h (Candida albicans; [16]): 0
- Δlog (Candida albicans; [16]): −3.78
- Δlog (Aspergillus brasiliensis; [17]): −0.60
- Microbe count t24 h (Aspergillus brasiliensis; [17]): 2.0 × 10^2
- Microbe count t24 h (Corynebacterium xerosis; [18]): 0
- Δlog (Corynebacterium xerosis; [18]): −6.00
- Microbe count t24 h (Echerichia coli; [19]): 0
- Δlog (Echerichia coli; [19]): −4.80
- Microbe count t24 h (Malassezia furfur): 0
- Δlog (Malassezia furfur; t24 h): −2.60
- Microbe count t24 h (Propionibacterium acnes; [20]): 1.3 × 10^4
- Δlog (Propionibacterium acnes; [20]): −1.78
- Microbe count t24 h (Salmonella enterica; [21]): 0
- Δlog (Salmonella enterica; [21]): −4.11
- Microbe count t24 h (Staphylococcus aureus; count t0 1.1 × 10^4): 0
- Δlog (Staphylococcus aureus; count t0 1.1 × 10^4): −4.04

Compound: tocopherol [reference compound]
- Antioxidation-protection factor (ratio of the induction times with and without test substance) [1]: 1.00

Compound: CC(C)(C)C1CCC(O)CC1 (stereo not drawn) [4-t-butyl-1-cyclohexanol, reference compound]
- Antioxidation-protection factor (ratio of the induction times with and without test substance) [1]: 1.05

From patent USRE46698E1, “Use of cyclohexanol derivatives as antimicrobial active compounds” (MERCK PATENT GMBH, priority 2011, dated 2018)
